Experimental findings from ChEMBL document CHEMBL1201862, “PubChem BioAssay data set” (2004) are described below.

SMILES strings stand for the structures.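 Protocol summary: plate cells (96-well), add compound at 5 concentrations, incubate 48 h, interpolate endpoints linearly. At the GI50, growth is halved.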 The source made the active and inactive calls. Cut-off read from the data, not from the text of the source: active = GI50 up to about 1.1 µM and inactive = higher.

Among the test systems are BT-549; SR; PC-3; LOX IMVI; MCF7; SNB-19; NCI-H226; SW-620; K562; HT-29; SN12C; HCT-15; HOP-62; A549; CCRF-CEM; DU-145; HCC 2998; A498; IGROV-1; RPMI-8226.
Holding throughout (assay): inhibition of tumour cell growth, NCI panel, 48 h

Take `COc1cc(/C=C2\C(=O)N(Cc3ccccc3)C(c3ccccc3)S2(=O)=O)cc(OC)c1OC` (stereo unspecified): the GI50 with BT-549 was 36.3 µM (inactive); with SR, 14.3 µM (inactive); with PC-3, 43 µM (inactive); in the test with LOX IMVI, 27.5 µM (inactive); with MCF7, 26.3 µM (inactive); with SNB-19, > 100 µM (inactive). Further, the GI50 with NCI-H226 was 50.6 µM (inactive); in the test with SW-620, 79.1 µM (inactive); in the test on K562, 5.12 µM (inactive); in the test with HT-29, 51.6 µM (inactive); in the test with SN12C it was 74 µM (inactive); in the test with HCT-15, 27.5 µM. The GI50 was > 100 µM (inactive) in the test with HOP-62; 29.9 µM (inactive) in the test with A549; 36.5 µM (inactive) with CCRF-CEM; 91.6 µM (inactive) in the test with DU-145; > 100 µM (inactive) in the test on HCC 2998; 21.4 µM (inactive) with A498.
On to `O=C1C=CC(O)C2C1CC13SSC4(CC5C(=O)C=CC(O)C5N4C1=O)C(=O)N23` (stereo unspecified), for which the GI50 is 1.63 µM (inactive) with BT-549; < 0.01 µM (active) in the test on SR; 0.138 µM (active) in the test on PC-3; 0.0579 µM (active) in the test on LOX IMVI; 1.21 µM (inactive) with MCF7; 1.37 µM (inactive) with IGROV-1. Also, the GI50 in the test on SNB-19 is 1.36 µM (inactive); in the test with NCI-H226 it was 0.308 µM (active); with SW-620, 0.0324 µM (active); in the test on K562 it was 0.0358 µM (active); in the test with HT-29 it was 0.0426 µM (active); with RPMI-8226, < 0.01 µM (active). For the same compound, the GI50 was 0.0601 µM (active) in the test on SN12C; 0.14 µM in the test on HCT-15; 0.324 µM (active) in the test with HOP-62; 2.52 µM (inactive) with A549; < 0.01 µM (active) in the test on CCRF-CEM; 0.354 µM (active) in the test on DU-145. Further, in the test with A498, the GI50 is 3.2 µM (inactive).
As for `CSc1ccc(/C=C2\N=C(c3ccccc3)N(c3nc4cc(Cl)c(F)cc4s3)C2=O)cc1`, the GI50 in the test on BT-549 was 32.8 µM (inactive); in the test on SR it was 37.4 µM (inactive); with PC-3, 35.2 µM (inactive); in the test with LOX IMVI it was 20.3 µM (inactive); in the test with MCF7, 39.9 µM (inactive); with IGROV-1, 36.5 µM (inactive). Besides, the GI50 was 25.1 µM (inactive) in the test on SNB-19; 71.8 µM (inactive) with SW-620; 71.3 µM (inactive) in the test with K562; 49.4 µM (inactive) in the test with HT-29; 26.1 µM (inactive) with RPMI-8226; 36.7 µM (inactive) in the test with SN12C. In addition, the GI50 in the test on HCT-15 is 76.9 µM; with HOP-62, 25.2 µM (inactive); in the test with A549 it was 33.7 µM (inactive); in the test on CCRF-CEM it was 25 µM (inactive); in the test with DU-145 it was 50 µM (inactive); in the test with HCC 2998, 99.5 µM (inactive). Besides, the GI50 in the test with A498 was 43.5 µM (inactive).
Turning to `O=C(O)CSc1ncccc1[N+](=O)[O-]`, the GI50 in the test with BT-549, in the test on SR, with PC-3, with LOX IMVI, in the test with MCF7 and in the test on IGROV-1 was > 100 µM (inactive) each time. For the same compound, the GI50 with SNB-19, in the test on NCI-H226, in the test with SW-620, in the test with K562, in the test on HT-29 and with SN12C was > 100 µM (inactive) in each case. In addition, the GI50 in the test with HCT-15 was more than 100 µM; with HOP-62, > 100 µM (inactive); with A549 it was > 100 µM (inactive); with CCRF-CEM, > 100 µM (inactive); with DU-145, > 100 µM (inactive); with A498, > 100 µM (inactive).
In the case of `COc1cccc(C2CC(=O)c3cc(N4CCCC4)ccc3N2)c1` (stereo unspecified), the GI50 was 0.0843 µM (active) in the test with BT-549; 0.0144 µM (active) with SR; 0.022 µM (active) in the test with PC-3; 0.0516 µM (active) in the test on LOX IMVI; 0.398 µM (active) with MCF7; 0.045 µM (active) in the test with IGROV-1. The GI50 in the test with SNB-19 was 0.0296 µM (active); in the test on NCI-H226, 0.0385 µM (active); with SW-620, 0.0243 µM (active); in the test on K562, 0.0237 µM (active); in the test on HT-29 it was 0.0211 µM (active); in the test on RPMI-8226, 0.0492 µM (active). In addition, the GI50 is 0.0418 µM (active) in the test on SN12C; 0.0335 µM in the test on HCT-15; 1.75 µM (inactive) in the test with HOP-62; 0.036 µM (active) in the test with A549; 0.0407 µM (active) in the test on CCRF-CEM; 0.0344 µM (active) with DU-145. In the test on HCC 2998, the GI50 is 0.0475 µM (active).
As to `COc1cccc(CCCNC(=O)Cc2ccccc2CO)c1`, the GI50 in the test with BT-549, in the test with SR, in the test with PC-3, in the test with LOX IMVI, in the test on MCF7 and in the test with IGROV-1 was > 100 µM (inactive) throughout. In addition, the GI50 with SNB-19, in the test on NCI-H226, with SW-620, in the test on K562, with HT-29 and with SN12C was > 100 µM (inactive) in each case. For the same compound, the GI50 was more than 100 µM in the test on HCT-15; > 100 µM (inactive) in the test on HOP-62; > 100 µM (inactive) in the test with A549; > 100 µM (inactive) in the test on CCRF-CEM; > 100 µM (inactive) in the test with DU-145; > 100 µM (inactive) in the test on HCC 2998. Moreover, the GI50 with A498 is > 100 µM (inactive).
Turning to `CCCCCCSc1nc(COC(=O)NC)c(COC(=O)NC)n1C`, the GI50 with BT-549, in the test with SR, in the test with PC-3, in the test on LOX IMVI, in the test with MCF7 and with IGROV-1 was > 100 µM (inactive) each time. In addition, the GI50 in the test with SNB-19, with NCI-H226, in the test on SW-620, in the test on K562, in the test with HT-29 and in the test on RPMI-8226 was > 100 µM (inactive) each time. The GI50 with SN12C is > 100 µM (inactive); in the test with HCT-15, more than 100 µM; with HOP-62, > 100 µM (inactive); in the test on A549, > 100 µM (inactive); in the test with CCRF-CEM, > 100 µM (inactive); in the test with DU-145, > 100 µM (inactive). Besides, the GI50 in the test on A498 is > 100 µM (inactive).
With `CCN1CCC(O)(c2ccc(Oc3ccccc3)cc2)C(C(=O)c2ccc(Oc3ccccc3)cc2)C1` (stereo unspecified), the GI50 is 10.5 µM (inactive) with BT-549; 5.74 µM (inactive) in the test with SR; 13 µM (inactive) with PC-3; 3.84 µM (inactive) in the test on LOX IMVI; 3.63 µM (inactive) in the test with MCF7; 15.4 µM (inactive) in the test on IGROV-1. Also, the GI50 with SNB-19 was 14.6 µM (inactive); in the test with SW-620, 12.1 µM (inactive); in the test on K562, 13.7 µM (inactive); in the test with HT-29, 6.98 µM (inactive); in the test on RPMI-8226, 2.46 µM (inactive); in the test on SN12C it was 15.3 µM (inactive). Also, the GI50 in the test with HCT-15 was 12.2 µM; in the test on HOP-62, 11.9 µM (inactive); in the test with A549, 13.5 µM (inactive); in the test on CCRF-CEM it was 5.81 µM (inactive); in the test with DU-145, 14.3 µM (inactive); with HCC 2998, 6.62 µM (inactive). Also, in the test with A498, the GI50 is 14 µM (inactive).
For `CC1=C(C(=O)OC(C)C)C(c2ccccc2C(F)(F)F)C(C(=O)OC(CO[N+](=O)[O-])CO[N+](=O)[O-])=C(C)N1` (stereo unspecified), the GI50 in the test with BT-549 is 5.11 µM (inactive); with SR it was 5 µM (inactive); with PC-3, 2.56 µM (inactive); in the test on LOX IMVI, 4.61 µM (inactive); in the test with MCF7, 4.22 µM (inactive); with IGROV-1, 9.29 µM (inactive). For the same compound, the GI50 is 14.7 µM (inactive) in the test on SNB-19; 13.7 µM (inactive) with NCI-H226; 5.79 µM (inactive) in the test on SW-620; 2.69 µM (inactive) in the test on K562; 5.79 µM (inactive) with HT-29; 3.94 µM (inactive) in the test on RPMI-8226. Moreover, the GI50 with SN12C was 4.09 µM (inactive); with HCT-15, 7.96 µM; in the test on HOP-62, 11 µM (inactive); in the test with A549 it was 3.92 µM (inactive); in the test with CCRF-CEM, 2.72 µM (inactive); with DU-145, 16.6 µM (inactive). For the same compound, in the test with HCC 2998, the GI50 was 21.6 µM (inactive).
Consider `CCCc1cn2c(/C=N/NC(=N)N)c(-c3cc([N+](=O)[O-])c(Cl)cc3Cl)nc2s1`, for which the GI50 in the test on BT-549 is 2.15 µM (inactive); in the test on SR, 1.45 µM (inactive); in the test on PC-3 it was 1.67 µM (inactive); in the test on LOX IMVI, 1.41 µM (inactive); with MCF7, 1.4 µM (inactive); in the test with IGROV-1, 1.69 µM (inactive). Further, the GI50 with SNB-19 is 1.48 µM (inactive); in the test with NCI-H226 it was 1.82 µM (inactive); in the test with SW-620, 1.61 µM (inactive); with K562, 1.23 µM (inactive); in the test with HT-29, 1.22 µM (inactive); in the test with RPMI-8226, 1.32 µM (inactive). In addition, the GI50 is 1.77 µM (inactive) in the test with SN12C; 1.66 µM in the test on HCT-15; 1.58 µM (inactive) in the test on HOP-62; 1.48 µM (inactive) in the test on A549; 0.216 µM (active) with CCRF-CEM; 1.82 µM (inactive) with DU-145. Moreover, the GI50 in the test with A498 was 1.55 µM (inactive).
Take `CN(C)CCCNC(=O)c1cc2/c(=C\c3ccc(N(C)C)cc3)c3ccccc3n2[n+]1C`: the GI50 in the test with BT-549 was 63.7 µM (inactive); in the test on SR it was 23.3 µM (inactive); in the test on PC-3 it was 39.5 µM (inactive); in the test on LOX IMVI it was 42 µM (inactive); in the test with MCF7, 21.8 µM (inactive); with IGROV-1 it was 15.7 µM (inactive). Also, the GI50 in the test with SNB-19 was 24.8 µM (inactive); with SW-620, 31.1 µM (inactive); in the test on K562, 8.83 µM (inactive); in the test with HT-29, 27.5 µM (inactive); with RPMI-8226 it was 20.4 µM (inactive); in the test with SN12C it was 1.58 µM (inactive). Also, the GI50 was more than 100 µM in the test with HCT-15; 48.3 µM (inactive) in the test on HOP-62; > 100 µM (inactive) with A549; 35.1 µM (inactive) with CCRF-CEM; > 100 µM (inactive) in the test on DU-145; 6.04 µM (inactive) in the test on A498.
